Source: patent publication US20240417410A1, “TRICYCLIC COMPOUNDS FOR THE TREATMENT OF CANCER” (Hoffmann-La Roche Inc., priority 2023, published 2024)
Where two headings read alike, the source gives them in different places.

How the values were obtained:
CYPA = CYPA (Homo sapiens (Human), UniProt P62937); experiment: CYPA binding analysis by surface plasmon resonance (SPR)
From the text: The compounds of this invention created a tri-complex involving the active RAS protein and CYPA, necessitating the initial formation of a binary complex through the compound's interaction with CYPA. The stability of the drug-target complex, as indicated by its equilibrium dissociation constant (KD), is thought to influence the length of target engagement, which in turn could lead to a prolonged effect in the washout experiments. Therefore, the objective of this study is to evaluate the binding kinetics of the compounds with CYPA to determine the stability of the CYPA-compound binary complex and to evaluate whether this stability correlates with the sustained inhibition of the target.
All SPR experiments were conducted on a Biacore 8K+ instrument (Cytiva). Recombinant biotinylated CYPA protein with a C-terminal AVI tag was purified and immobilized on flow cell 2 of SA chip (Cytiva, BR100531), with the flow cell 1 as the blank reference. The running buffer was HBS-P+ Buffer (Cytiva, BR100827, 0.01 M HEPES pH 7.4,0.15 M NaCl, 0.05% v/v Surfactant P20), and the flow rate was 10 μL/min. The immobilization level was achieved to about 1800 response units (RU). Compounds were 3-fold serially diluted to 1.5-3333 nM using HBS-P+Buffer with a final DMSO concentration of 1.5%, and then loaded to flow through the chip surface at a rate of 30 μL/min with HBS-P+Buffer containing 1.5% DMSO as the running buffer. Experiments were performed at 25° C. The contact time and dissociation time were set to 60 s and 200 s, respectively. After binding and dissociation of each sample, the chip was regenerated using 1 M NaCl with a short contact time of 19 s at a rate of 60 μL/min. The sensorgrams were analyzed using Biacore Insight Evaluation software with 1:1 kinetics binding model to determine the association rate constant (kon), dissociation rate constant (koff) and equilibrium dissociation constant (KD).

AsPc-1 = experiment: Cell proliferation, CTG 3D, 7 d; format: cell-based; conditions: Homo sapiens, ASPC1; AsPc-1, KRAS (G12D)
In short: (§1)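 Seven-day 3D growth assay in low-adhesion round-bottom plates, 37° C, 5% CO2. Compound given at 9 concentrations, 3-fold apart. CellTiter-Glo 3D read-out gave the relative IC50.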

DLD-1 = experiment: Cell proliferation, CTG 3D, 7 d; format: cell-based; conditions: Homo sapiens
In short: as §1

HS 578T = experiment: Cell proliferation, CTG 3D, 7 d; format: cell-based; conditions: Homo sapiens, HRAS (p.G12D)
In short: as §1

HT-1197 = experiment: Cell proliferation, CTG 3D, 7 d; format: cell-based; conditions: Homo sapiens, HT1197
In short: as §1

KMS26 = experiment: Cell proliferation, CTG 3D, 7 d; format: cell-based; conditions: Homo sapiens, KMS-26; KMS26, KRAS (WT ampl)
In short: as §1

LCLC-97TM1 = experiment: Cell proliferation, CTG 3D, 7 d; format: cell-based; conditions: Homo sapiens; LCLC-97TM1, KRAS (G12V)
In short: as §1

MKN-1 = experiment: Cell proliferation, CTG 3D, 7 d; format: cell-based; conditions: Homo sapiens; MKN-1, KRAS (WT ampl)
In short: as §1

NCI-H1299 = experiment: Cell proliferation, CTG 3D, 7 d; format: cell-based; conditions: Homo sapiens
In short: as §1

NCI-H1792 = experiment: Cell proliferation, CTG 3D, 7 d; format: cell-based; conditions: Homo sapiens; NCI-H1792, KRAS (G12C)
In short: as §1

NCI-H2347 = experiment: Cell proliferation, CTG 3D, 7 d; format: cell-based; conditions: Homo sapiens
In short: as §1

NCI-H358 = experiment: Cell proliferation, CTG 3D, 7 d; format: cell-based; conditions: Homo sapiens; NCI-H358, KRAS (G12C)
In short: as §1

SJSA-1 = experiment: Cell proliferation, CTG 3D, 7 d; format: cell-based; conditions: Homo sapiens
In short: as §1

SK-N-SH = experiment: Cell proliferation, CTG 3D, 7 d; format: cell-based; conditions: Homo sapiens
In short: as §1

TT = experiment: Cell proliferation, CTG 3D, 7 d; format: cell-based; conditions: Homo sapiens, KRAS (WT ampl)
In short: as §1

Sequence of CYPA (P62937 whole entry): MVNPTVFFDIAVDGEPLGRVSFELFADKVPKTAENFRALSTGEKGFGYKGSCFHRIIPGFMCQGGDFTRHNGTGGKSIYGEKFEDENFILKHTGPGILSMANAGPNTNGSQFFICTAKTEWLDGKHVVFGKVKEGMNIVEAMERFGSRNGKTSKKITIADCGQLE

Structure (SMILES)	koff (CYPA; SPR, 25° C., immobilized CYPA) [s⁻¹]	kon (CYPA; SPR, 25° C., immobilized CYPA) [M⁻¹ s⁻¹]	IC50 (AsPc-1) [nM]	IC50 (HS 578T) [nM]	IC50 (KMS26) [nM]	IC50 (LCLC-97TM1) [nM]	IC50 (MKN-1) [nM]	IC50 (NCI-H1792) [nM]	IC50 (NCI-H358) [nM]	IC50 (TT) [nM]	also measured
CCn1c(-c2cc(N3CCN(C)CC3)cnc2[C@H](C)OC)c2c3cc(ccc31)-c1csc(n1)C[C@H](NC(=O)[C@H]1C[C@@H]1C)C(=O)N1CCC[C@H](N1)C(=O)OCC(C)(C)O2 [Example A122, reference compound]	0.056	1.9e+06	0.55	3.1	48	0.17	40	0.43	0.27	5.9	IC50 (DLD-1; DLD-1): 20 nM; IC50 (HT-1197): 2.5 nM; IC50 (NCI-H1299; NCI-H1299): 1.5 nM; IC50 (NCI-H2347; NCI-H2347): 4.2 nM; IC50 (SJSA-1; SJSA-1): 3.1 nM; IC50 (SK-N-SH): 580 nM
CO[C@@H](C)c1ncc(N2CCN(C)CC2)cc1-c1c2c3cc(cc4c3n1CCC4)-c1csc(n1)C[C@H](NC(=O)[C@H]1[C@H](C)[C@@H]1C)C(=O)N1CCC[C@H](N1)C(=O)OCC(C)(C)C2 (atropisomer, axis not shown; (M)) [Example 24, (1r,2R,3S)-N-[(7S,13S)-(20M)-20-[2-[(1S)-1-methoxyethyl]-5-(4-methylpiperazin-1-yl)-3-pyridyl]-17,17-dimethyl-8,14-dioxo-15-oxa-4-thia-9,21,30,31-tetrazahexacyclo[23.3.1.1^2,5.1^9,13.0^19,27.0^21,26]hentriaconta-1 (28),2,5 (31), 19,25 (29),26-hexaen-7-yl]-2,3-dimethyl-cyclopropanecarboxamide]	0.019	1.4e+06	0.65	1.7	50	0.092	28	0.21	0.12	2.9	fold lower KD compared to A122 (CYPA): 2.3 fold; fold lower koff compared to A122 (CYPA): 2.9 fold; Kd (CYPA; SPR, 25° C., immobilized CYPA): 13 nM; IC50 (DLD-1; DLD-1, KRAS (G13D), read-out: IC50): 18 nM; IC50 (HT-1197; HT-1197, NRAS (p.Q61R), read-out: IC50): 1.4 nM; IC50 (NCI-H1299; NCI-H1299, NRAS (p.Q61K), read-out: IC50): 0.93 nM; IC50 (NCI-H2347; NCI-H2347, KRAS (L19F), read-out: IC50): 2 nM; IC50 (SJSA-1; SJSA-1, KRAS (Q61H), read-out: IC50): 2.6 nM; IC50 (SK-N-SH; NRAS (p.Q61K), read-out: IC50): 1000 nM
